Data set [1] in a line: physchem. Conditions: aqueous buffer, thermodynamic from solid.
The nature of the next data set: Solubility in saline. The data set is classed as physicochemical. The conditions noted are these: for solubility: saline, saline or isotonic.
The nature of data set [2]: Solubility in artificial cerebrospinal fluid (aCSF). The conditions noted are these: Table 2, artificial CSF.
Data set [3] is described as follows: physchem. The conditions noted are these: saline or isotonic, thermodynamic from solid.
The conditions of data set [4]: cited from earlier work.
The mark [5] stands for this setting: artificial cerebrospinal fluid (aCSF).

≈ marks a conversion by molar mass, not a printed value.

Turning to `CCOC(=O)C1=C(COCCNC(=O)/C=C\C(=O)O)NC(C)=C(C(=O)OC)C1c1ccccc1Cl` (stereo not shown) [(Z)-4-[(2-{[4-(2-chlorophenyl)-3-(ethoxycarbonyl)-5-(methoxycarbonyl)-6-methyl-1,4-dihydro-2-pyridinyl]methoxy}ethyl)amino]-4-oxo-2-butenoic acid], the solubility in the data set “physchem [1]” (MPI solution or aCSF) is greater than 205 µg/mL.

Molecule `COCC1=C(C(=O)O)N2C(=O)[C@@H](NC(=O)/C(=N\OC)c3csc(N)n3)[C@H]2SC1` [cefpodoxime] returned a solubility in “physchem [1]” greater than 205 µg/mL.

Molecule `CC(Cc1ccc(OCC(=O)O)cc1)NCC(O)c1csc(C(F)(F)F)n1` (stereo not shown) [(4-{2-[2-hydroxy-2-(2-trifluoromethyl-thiazol-4-yl)-ethylamino]-propyl}-phenoxy)-acetic acid] returned a solubility in the data set “physchem [1]” greater than 205 µg/mL.

As for `CC(=O)OCC1=C(C(=O)O)N2C(=O)[C@@H](NC(=O)CSc3ccncc3)[C@H]2SC1` [cephaprine], the “Solubility In Saline” value in the data set “Solubility in saline” (Table 2, saline) stood at 1 mg/mL (≈ 2360 µM). Moreover, in data set [2], the “Solubility In Artificial CSF” value was greater than 1200 µg/mL.

As to `CO/N=C(\C(=O)N[C@@H]1C(=O)N2C(C(=O)[O-])=C(C[N+]3(C)CCCC3)CS[C@H]12)c1csc(N)n1` [cefepime], the solubility is greater than 78 µg/mL in “physchem [3]”; greater than 205 µg/mL in “physchem [1]”; 66 µg/mL (≈ 137 µM) in “Solubility in saline” (Table 2, saline).

For `NCC(CC(=O)O)c1ccc(Cl)cc1` (stereo not shown) [baclofen], the “Concentration achieved in aCSF” value in data set [4] (differing forms of aCSF, earlier in vivo studies) was “less than 0.21 mg/ml”. Also, in data set [4] (extreme heating at 100° Celsius, sonication, high speed stirring, US 2006/0009523), the “Solubility in aqueous saline solution” value is no more than 12 mg/mL. For the same molecule, the “Concentration by back titration method” value in data set [4] (initial dissolution in acid pH below 3.87, then base, US 2006/0009523) is roughly 10 mg/mL.

In the data set “physchem [1]”, `C=CC1=C(C(=O)O)N2C(=O)[C@@H](NC(=O)/C(=N\O)c3csc(N)n3)[C@H]2SC1` [cefdinir] yielded a solubility greater than 205 µg/mL.

As for `CO/N=C(\C(=O)N[C@@H]1C(=O)N2C(C(=O)O)=C(CSc3nc(=O)c(=O)[nH]n3C)CS[C@H]12)c1csc(N)n1` [Ceftriaxone, ceftriaxone], the solubility in “physchem [3]” (setting [5]) was greater than 250 µg/mL; in “physchem [1]” (MPI solution or aCSF), greater than 205 µg/mL; in “physchem [1]” (multivalent physiologic ion (MPI) solution) it was no less than 700 µg/mL; in “Solubility in saline” (Table 1, saline), 205 µg/mL (≈ 370 µM); in the data set “Solubility in saline” (Table 2, saline) it was 205 µg/mL (≈ 370 µM); in the data set “Solubility in saline” (text of Examples 8-14) it was 205 µg/mL (≈ 370 µM). The “Solubility In Artificial CSF” value in data set [2] was greater than 250 µg/mL.

`NC1C2CN(c3nc4c(cc3F)c(=O)c(C(=O)O)cn4-c3ccc(F)cc3F)CC12` (stereo not shown) [7-(6-amino-3-aza-bicyclo[3.1.0]hex-3-yl)-1-(2,4-difluoro-phenyl)-6-fluoro-4-oxo-1,4-dihydro-[1,8]naphthyridine-3-carboxylic acid] registered a solubility in the data set “physchem [1]” greater than 205 µg/mL.

For the molecule `C=CC1=C(C(=O)O)N2C(=O)[C@@H](NC(=O)/C(=N\OCC(=O)O)c3csc(N)n3)[C@H]2SC1` [cefixime], the solubility is greater than 72 µg/mL in “physchem [3]” (setting [5]); greater than 205 µg/mL in “physchem [1]” (MPI solution or aCSF); 55 µg/mL (≈ 121 µM) in “Solubility in saline” (Table 2, saline). In addition, the “Solubility In Saline” value in the data set “Solubility in saline” (Table 2, saline) is 0.068 mg/mL (≈ 150 µM). Further, the “Solubility In Artificial CSF” value in data set [2] is greater than 80 µg/mL.

One may read the solubility as the concentration that dissolves in the medium under given conditions. Lower therefore signals a poorly soluble substance.
